Measured values as given in patent publication US20220324835A1 (Nurix Therapeutics, Inc., priority 2018, published 2022).

Assays:
[1] = system: T-cell; experiment: CD25 cell surface staining on T-cells stimulated with anti-CD3 antibody alone (Biological Example 2); format: cell-based, human; details: Homo sapiens, T-cell; 1 μM Cbl-b inhibitor; fold change over baseline (anti-CD3/anti-CD28 stimulated T-cells without inhibitor); read-out: CD25 staining Anti-CD3 stimulation
[2] = system: T-cell; experiment: IL-2 secretion from T-cells co-stimulated with anti-CD3 and anti-CD28 antibody (Biological Example 2); format: cell-based, human; details: Homo sapiens, T-cell, fold change over baseline (anti-CD3/anti-CD28 stimulated T-cells without inhibitor), read-out: IL-2 secretion Anti-CD3/Anti-CD28 stimulation; for fold induction at 0.3 µM: 0.3 μM Cbl-b inhibitor; for fold induction at 1 µM: 1 μM Cbl-b inhibitor
Procedure, shortened: (§1)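 Values are fold-change over baseline: readings (IL-2 release, CD25 staining) from inhibitor-treated T-cells divided against untreated cells […]. No detailed procedure stated.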

[3] = molecular target: T1, Cbl-b (Homo sapiens, UniProt Q13191); experiment: Cbl-b activity assay (Cbl-b inhibition assay), TR-FRET of Cbl-b interaction with UbcH5B-Ub; format: biochemical; details: assay buffer with 100 mM NaCl, 60 nM Src kinase; read-out: Cbl-b activity IC50
Procedure, shortened: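 Compound-treated Cbl-b was incubated 1.5 h with Src kinase (60 nM final; 30 nM for asterisked values, which also used 50 mM instead of 100 mM NaCl), 1 mM ATP and 5 mM MgCl2. Binding to fluorescent Ub-loaded UbcH5B (C85K mutant) was then read by TR-FRET after 1 h more.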

[4] = system: T-cell; experiment: CD25 cell surface staining on T-cells co-stimulated with anti-CD3 and anti-CD28 antibody (Biological Example 2); format: cell-based, human; details: Homo sapiens, T-cell, fold change over baseline (anti-CD3/anti-CD28 stimulated T-cells without inhibitor), read-out: CD25 staining Anti-CD3/Anti-CD28 stimulation; for fold induction at 0.3 µM: 0.3 μM Cbl-b inhibitor; for fold induction at 1 µM: 1 μM Cbl-b inhibitor
Procedure, shortened: as §1

[5] = molecular target: T1, Cbl-b; experiment: Cbl-b inhibition assay (Cbl-b activity assay, FRET, Biological Example 1; 100 mM NaCl, 60 nM Src kinase); format: biochemical; details: upper bound stated in text lists; read-out: IC50 values in the Cbl-b inhibition assay of Biological Example 1
Procedure, shortened: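 FRET read-out: loss of signal marks inhibition. Mix = biotin-Avi-Cbl-b (N-term), Src kinase, UbcH5B-Ub(Bodipy-FL, irreversible conjugate), streptavidin-Tb, assay buffer.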

[6] = system: T-cell; experiment: IL-2 secretion from T-cells stimulated with anti-CD3 antibody alone (Biological Example 2); format: cell-based, human; details: Homo sapiens, T-cell; 1 μM Cbl-b inhibitor; fold change over baseline (anti-CD3/anti-CD28 stimulated T-cells without inhibitor); read-out: IL-2 secretion Anti-CD3 stimulation

T1 sequence (Q13191 36-427): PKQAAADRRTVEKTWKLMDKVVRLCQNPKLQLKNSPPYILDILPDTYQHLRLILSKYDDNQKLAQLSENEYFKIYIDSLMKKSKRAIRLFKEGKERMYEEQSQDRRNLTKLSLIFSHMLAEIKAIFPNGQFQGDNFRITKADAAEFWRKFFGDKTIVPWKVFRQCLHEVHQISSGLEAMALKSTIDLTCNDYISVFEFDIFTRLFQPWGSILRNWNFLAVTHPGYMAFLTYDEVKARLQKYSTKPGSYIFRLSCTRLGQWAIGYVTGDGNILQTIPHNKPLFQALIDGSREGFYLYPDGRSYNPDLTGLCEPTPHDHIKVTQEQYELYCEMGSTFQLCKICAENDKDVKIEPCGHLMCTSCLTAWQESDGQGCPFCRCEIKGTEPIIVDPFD

SMILES: C[C@H](Cc1nncn1C)c1cc(N[C@@H]2CC[C@@H]2O)nc(N2Cc3c(cccc3C(F)(F)F)C2=O)c1 [Example 689a, 2-(6-(((1R,2S)-2-hydroxycyclobutyl)amino)-4-((R)-1-(4-methyl-4H-1,2,4-triazol-3-yl)propan-2-yl)pyridin-2-yl)-4-(trifluoromethyl)isoindolin-1-one]
- fold induction at 1 µM [1]: 0.601 to 0.8
- fold induction at 0.3 µM [2]: 1.01 to 2.5
- fold induction at 1 µM [2]: 1.01 to 2.5
- IC50 [3]: 301 to 1000 nM
- fold induction at 0.3 µM [4]: 1.01 to 1.3
- fold induction at 1 µM [4]: 1.01 to 1.3
- IC50 [5]: ≤ 1000 nM
- fold induction at 1 µM [6]: < 0.05

SMILES: C[C@H](Cc1nncn1C)c1cc(N[C@H]2CC[C@H]2O)nc(N2Cc3c(cccc3C(F)(F)F)C2=O)c1 [Example 689b, 2-(6-(((1S,2R)-2-hydroxycyclobutyl)amino)-4-((R)-1-(4-methyl-4H-1,2,4-triazol-3-yl)propan-2-yl)pyridin-2-yl)-4-(trifluoromethyl)isoindolin-1-one]
- fold induction at 1 µM [1]: < 0.6
- fold induction at 0.3 µM [2]: 1.01 to 2.5
- fold induction at 1 µM [2]: 1.01 to 2.5
- IC50 [3]: 301 to 1000 nM
- fold induction at 0.3 µM [4]: 1.01 to 1.3
- fold induction at 1 µM [4]: 1.01 to 1.3
- IC50 [5]: ≤ 1000 nM
- fold induction at 1 µM [6]: < 0.05

SMILES: CCOc1cc(NC(=O)c2cc(C)nc(C3CC3)n2)cc(C2(Cc3nncn3C)COC2)c1 [Example 690, 2-cyclopropyl-N-(3-ethoxy-5-(3-((4-methyl-4H-1,2,4-triazol-3-yl)methyl)oxetan-3-yl)phenyl)-6-methylpyrimidine-4-carboxamide]
- fold induction at 1 µM [1]: 0.801 to 1
- fold induction at 0.3 µM [2]: 2.51 to 5
- fold induction at 1 µM [2]: 5 to 7.5
- IC50 [3]: < 100 nM
- fold induction at 0.3 µM [4]: 1.01 to 1.3
- fold induction at 1 µM [4]: 1.01 to 1.3
- IC50 [5]: ≤ 100 nM
- fold induction at 1 µM [6]: 0.051 to 0.1

SMILES: CCOc1cc(N2Cc3c(cc([C@@H](C)N4CC[C@H](F)C4)cc3C(F)(F)F)C2=O)cc(C2(Cc3nncn3C)COC2)c1 [Example 691a, 2-(3-ethoxy-5-(3-((4-methyl-4H-1,2,4-triazol-3-yl)methyl)-oxetan-3-yl)phenyl)-6-((R)-1-((S)-3-fluoropyrrolidin-1-yl)ethyl)-4-(trifluoromethyl)-isoindolin-1-one]
- fold induction at 1 µM [1]: > 1
- fold induction at 0.3 µM [2]: > 7.5
- fold induction at 1 µM [2]: > 7.5
- IC50 [3]: < 100 nM
- fold induction at 0.3 µM [4]: 1.31 to 1.5
- fold induction at 1 µM [4]: 1.51 to 1.75
- IC50 [5]: ≤ 100 nM
- fold induction at 1 µM [6]: > 0.201

SMILES: CCOc1cc(N2Cc3c(cc([C@H](C)N4CC[C@H](F)C4)cc3C(F)(F)F)C2=O)cc(C2(Cc3nncn3C)COC2)c1 [Example 691b, 2-(3-ethoxy-5-(3-((4-methyl-4H-1,2,4-triazol-3-yl)methyl)oxetan-3-yl)phenyl)-6-((S)-1-((S)-3-fluoropyrrolidin-1-yl)ethyl)-4-(trifluoromethyl)isoindolin-1-one]
- fold induction at 1 µM [1]: > 1
- fold induction at 0.3 µM [2]: 2.51 to 5
- fold induction at 1 µM [2]: > 7.5
- IC50 [3]: < 100 nM
- fold induction at 0.3 µM [4]: 1.31 to 1.5
- fold induction at 1 µM [4]: 1.51 to 1.75
- IC50 [5]: ≤ 100 nM
- fold induction at 1 µM [6]: 0.151 to 0.2

SMILES: Cc1cc2c(c(C3CC3)n1)CN(c1cccc(C3(Cc4nncn4C)COC3)c1)C2=O [Example 692, 4-cyclopropyl-6-methyl-2-(3-(3-((4-methyl-4H-1,2,4-triazol-3-yl)methyl)oxetan-3-yl)phenyl)-2,3-dihydro-1H-pyrrolo[3,4-c]pyridin-1-one]
- fold induction at 1 µM [1]: 0.801 to 1
- fold induction at 0.3 µM [2]: 1.01 to 2.5
- fold induction at 1 µM [2]: 2.51 to 5
- IC50 [3]: < 100 nM
- fold induction at 0.3 µM [4]: 1.01 to 1.3
- fold induction at 1 µM [4]: 1.31 to 1.5
- IC50 [5]: ≤ 100 nM
- fold induction at 1 µM [6]: 0.051 to 0.1

SMILES: Cn1cnnc1CC1(c2cccc(N3Cc4c(cc(CN5CCCC(F)(F)C5)cc4C(F)(F)F)C3=O)c2)COC1 [Example 693, 6-((3,3-difluoropiperidin-1-yl)methyl)-2-(3-(3-((4-methyl-4H-1,2,4-triazol-3-yl)methyl)oxetan-3-yl)phenyl)-4-(trifluoromethyl)isoindolin-1-one]
- fold induction at 1 µM [1]: > 1
- fold induction at 0.3 µM [2]: > 7.5
- fold induction at 1 µM [2]: > 7.5
- IC50 [3]: < 100 nM
- fold induction at 0.3 µM [4]: 1.51 to 1.75
- fold induction at 1 µM [4]: 1.51 to 1.75
- IC50 [5]: ≤ 100 nM
- fold induction at 1 µM [6]: > 0.201

SMILES: Cc1cc(C(=O)Nc2cccc(C3(Cc4nncn4C)CCC3)c2)nc(C2CC2)n1 [Example 694, 2-cyclopropyl-6-methyl-N-(3-(1-((4-methyl-4H-1,2,4-triazol-3-yl)methyl)cyclobutyl)phenyl)pyrimidine-4-carboxamide]
- fold induction at 1 µM [1]: > 1
- fold induction at 0.3 µM [2]: > 7.5
- fold induction at 1 µM [2]: > 7.5
- IC50 [3]: < 100 nM
- fold induction at 0.3 µM [4]: 1.31 to 1.5
- fold induction at 1 µM [4]: 1.31 to 1.5
- IC50 [5]: ≤ 100 nM
- fold induction at 1 µM [6]: 0.051 to 0.1

SMILES: Cn1cnnc1CC1(c2cccc(N3Cc4c(cc(CN5CCC6(CC6)C5)cc4C(F)(F)F)C3=O)c2)CCC1 [Example 695, 6-((5-azaspiro[2.4]heptan-5-yl)methyl)-2-(3-(1-((4-methyl-4H-1,2,4-triazol-3-yl)methyl)cyclobutyl)phenyl)-4-(trifluoromethyl)isoindolin-1-one]
- fold induction at 1 µM [1]: > 1
- fold induction at 0.3 µM [2]: > 7.5
- fold induction at 1 µM [2]: > 7.5
- IC50 [3]: < 100 nM
- fold induction at 0.3 µM [4]: 1.31 to 1.5
- fold induction at 1 µM [4]: 1.31 to 1.5
- IC50 [5]: ≤ 100 nM
- fold induction at 1 µM [6]: > 0.201

SMILES: Cn1cnnc1CC1(c2cccc(N3Cc4c(ccnc4C(F)(F)F)C3=O)c2)COC1 [Example 696, 2-(3-(3-((4-methyl-4H-1,2,4-triazol-3-yl)methyl)oxetan-3-yl)phenyl)-4-(trifluoromethyl)-2,3-dihydro-1H-pyrrolo[3,4-c]pyridin-1-one]
- fold induction at 1 µM [1]: 0.601 to 0.8
- fold induction at 0.3 µM [2]: 1.01 to 2.5
- fold induction at 1 µM [2]: 1.01 to 2.5
- IC50 [3]: < 100 nM
- fold induction at 0.3 µM [4]: 1.01 to 1.3
- fold induction at 1 µM [4]: 1.01 to 1.3
- IC50 [5]: ≤ 100 nM
- fold induction at 1 µM [6]: < 0.05

SMILES: Cn1cnnc1CC1(c2cccc(N3Cc4c(cc(C(O)c5ccccc5)cc4C(F)(F)F)C3=O)c2)COC1 (stereo not shown) [Example 697, 6-(hydroxy(phenyl)methyl)-2-(3-(3-((4-methyl-4H-1,2,4-triazol-3-yl)methyl)oxetan-3-yl)phenyl)-4-(trifluoromethyl)isoindolin-1-one]
- fold induction at 1 µM [1]: > 1
- fold induction at 0.3 µM [2]: 5 to 7.5
- fold induction at 1 µM [2]: > 7.5
- IC50 [3]: < 100 nM
- fold induction at 0.3 µM [4]: 1.31 to 1.5
- fold induction at 1 µM [4]: 1.31 to 1.5
- IC50 [5]: ≤ 100 nM
- fold induction at 1 µM [6]: > 0.201

SMILES: Cc1cc(C(=O)Nc2cc(C3CC3)cc(C3(Cc4nncn4C)COC3)c2)nc(C2CC2)n1 [Example 698, 2-cyclopropyl-N-(3-cyclopropyl-5-(3-((4-methyl-4H-1,2,4-triazol-3-yl)methyl)oxetan-3-yl)phenyl)-6-methylpyrimidine-4-carboxamide]
- fold induction at 1 µM [1]: > 1
- fold induction at 0.3 µM [2]: 2.51 to 5
- fold induction at 1 µM [2]: > 7.5
- IC50 [3]: < 100 nM
- fold induction at 0.3 µM [4]: 1.01 to 1.3
- fold induction at 1 µM [4]: 1.31 to 1.5
- IC50 [5]: ≤ 100 nM
- fold induction at 1 µM [6]: > 0.201

SMILES: Cn1cnnc1CC1(c2cccc(NC(=O)c3cc(CN4CC[C@H](F)C4)nc(C(F)(F)F)n3)c2)COC1 [Example 699, (S)-6-((3-fluoropyrrolidin-1-yl)methyl)-N-(3-(3-((4-methyl-4H-1,2,4-triazol-3-yl)methyl)oxetan-3-yl)phenyl)-2-(trifluoromethyl)pyrimidine-4-carboxamide]
- fold induction at 1 µM [1]: 0.801 to 1
- fold induction at 0.3 µM [2]: 1.01 to 2.5
- fold induction at 1 µM [2]: 2.51 to 5
- IC50 [3]: < 100 nM
- fold induction at 0.3 µM [4]: 1.01 to 1.3
- fold induction at 1 µM [4]: 1.01 to 1.3
- IC50 [5]: ≤ 100 nM
- fold induction at 1 µM [6]: 0.051 to 0.1

SMILES: Cn1cnnc1OC1(c2cccc(N3Cc4c(cc(CN5CCC(F)CC5)cc4C(F)(F)F)C3=O)c2)COC1 [Example 700, 6-((4-fluoropiperidin-1-yl)methyl)-2-(3-(3-((4-methyl-4H-1,2,4-triazol-3-yl)oxy)oxetan-3-yl)phenyl)-4-(trifluoromethyl)isoindolin-1-one]
- fold induction at 1 µM [1]: 0.601 to 0.8
- fold induction at 0.3 µM [2]: 1.01 to 2.5
- fold induction at 1 µM [2]: 2.51 to 5
- IC50 [3]: 100 to 300 nM
- fold induction at 0.3 µM [4]: 1.01 to 1.3
- fold induction at 1 µM [4]: 1.31 to 1.5
- IC50 [5]: ≤ 300 nM
- fold induction at 1 µM [6]: < 0.05
